The values that follow come from US20230285377A1, “KCNT1 INHIBITORS AND METHODS OF USE” (Praxis Precision Medicines, Inc., priority 2020, published 2023).

As usually defined, the IC50 is the concentration that gives 50% inhibition. A lower IC50 goes with inhibition by little substance.

Chain of KCNT1 (KNa1.1, Slack) (Q5JUK3 whole entry): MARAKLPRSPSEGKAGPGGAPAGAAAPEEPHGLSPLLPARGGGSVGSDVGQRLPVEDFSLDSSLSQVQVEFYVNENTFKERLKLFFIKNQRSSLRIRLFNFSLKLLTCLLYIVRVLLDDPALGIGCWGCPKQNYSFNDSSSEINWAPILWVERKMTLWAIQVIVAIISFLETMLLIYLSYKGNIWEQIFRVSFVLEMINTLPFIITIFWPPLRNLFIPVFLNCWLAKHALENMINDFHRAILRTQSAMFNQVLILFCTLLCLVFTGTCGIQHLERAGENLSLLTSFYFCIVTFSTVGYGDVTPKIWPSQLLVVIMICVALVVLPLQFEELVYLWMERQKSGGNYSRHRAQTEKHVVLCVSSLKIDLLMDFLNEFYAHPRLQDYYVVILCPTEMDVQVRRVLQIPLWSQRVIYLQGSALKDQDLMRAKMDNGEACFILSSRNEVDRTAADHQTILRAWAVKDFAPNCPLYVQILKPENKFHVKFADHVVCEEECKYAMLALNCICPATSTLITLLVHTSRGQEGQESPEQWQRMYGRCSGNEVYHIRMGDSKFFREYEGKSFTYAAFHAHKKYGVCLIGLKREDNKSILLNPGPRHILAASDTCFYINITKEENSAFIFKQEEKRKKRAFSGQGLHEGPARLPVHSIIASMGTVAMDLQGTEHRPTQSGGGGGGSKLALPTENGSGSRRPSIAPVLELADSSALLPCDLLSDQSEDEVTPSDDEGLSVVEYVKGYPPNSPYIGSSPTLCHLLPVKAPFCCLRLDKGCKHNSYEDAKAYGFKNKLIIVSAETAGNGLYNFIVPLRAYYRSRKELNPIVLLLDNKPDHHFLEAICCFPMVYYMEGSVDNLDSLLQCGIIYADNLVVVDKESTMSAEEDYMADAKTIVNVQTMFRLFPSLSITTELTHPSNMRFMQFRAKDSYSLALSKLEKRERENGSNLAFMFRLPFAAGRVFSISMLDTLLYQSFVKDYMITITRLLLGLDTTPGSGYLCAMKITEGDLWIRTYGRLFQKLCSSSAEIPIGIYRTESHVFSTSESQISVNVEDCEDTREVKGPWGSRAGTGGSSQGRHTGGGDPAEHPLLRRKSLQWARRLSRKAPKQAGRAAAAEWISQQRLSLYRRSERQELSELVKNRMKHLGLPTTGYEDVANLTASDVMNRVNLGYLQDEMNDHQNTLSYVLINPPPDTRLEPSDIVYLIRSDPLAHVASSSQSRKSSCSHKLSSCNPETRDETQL

The test addresses KCNT1 (KNa1.1, Slack) (Homo sapiens (Human), UniProt Q5JUK3). Description: KCNT1-WT-Basal - Patch Clamp Assay. Format: cell-based. Conditions: tetracycline inducible HEK-TREX cell line; SyncroPatch 384PE automated patch clamp; step to 0 mV; room temperature. The protocol: Inhibition of KCNT1 (KNa1.1, Slack) was evaluated using a tetracycline inducible cell line (HEK-TREX). Currents were recorded using the SyncroPatch 384PE automated, patch clamp system. Pulse generation and data collection were performed with PatchController384 V1.3.0 and DataController384 V1.2.1 (Nanion Technologies). The access resistance and apparent membrane capacitance were estimated using built-in protocols. Current were recorded in perforated patch mode (10 µM escin) from a population of cells. The cells were lifted, triturated, and resuspended at 800,000 cells/ml. The cells were allowed to recover in the cell hotel prior to experimentation. Currents were recorded at room temperature. The external solution contained the following (in mM): NaCl 105, NMDG 40, KC1 4, MgC12 1, CaC12 5 and HEPES 10 (pH = 7.4, Osmolarity ~300 mOsm). The extracellular solution was used as the wash, reference and compound delivery solution. The internal solution contained the following (in mM): NaCl 70, KF 70, KC1 10, EGTA 5, HEPES 5 and Escin 0.01 (pH = 7.2, Osmolarity ~295 mOsm). Escin is made at a 5 mM stock in water, aliquoted, and stored at -20° C. The compound plate was created at 2x concentrated in the extracellular solution. The compound was diluted to 1:2 when added to the recording well. The amount of DMSO in the extracellular solution was held constant at the level used for the highest tested concentration. A holding potential of -80 mV with a 100 ms step to 0 mV was used. Mean current was measured during the step to 0 mV. […] The average mean current from 3 sweeps was calculated and the % inhibition of each compound was calculated. The % Inhibition as a function of the compound concentration was fit with a Hill equation to derive IC50, slope, min and max parameters. If KCNT1 inhibition was less than 50% at the highest tested concentration or if an IC50 could not be calculated, then a percent inhibition was reported in place of the IC50.
In this table, “A” indicates IC50 of less than or equal to 1 µM; “B” indicates inhibition of between 1 µM to 20 µM; and “C” indicates inhibition of greater than or equal to 20 µM.
On the technique in general: Patch clamp records ionic current or voltage across a cell membrane.
Turning to `C[C@H](NC(=O)c1cc(C(F)(F)F)nn1C)c1cc(-c2ccnc(C3CC3)c2)no1` (single isomer, unassigned) [Example 17], the IC50 fell in the range of 1000 to 20000 nM.
Then `C[C@H](NC(=O)c1cccc(Cl)c1)c1cc(-c2ccnc(C(F)(F)F)c2)no1` (single isomer, unassigned) [Example 21], with at most 1000 nM; and `C[C@@H](NC(=O)C1CCCCC1)c1cc(-c2ccnc(C(F)(F)F)c2)no1` (single isomer, unassigned) [Example 26], with at least 20000 nM; and `C[C@H](NC(=O)c1cc(C(F)(F)F)nn1C)c1nc(N2CCCCC2)ns1` [Example 46, 2-methyl-N-[(1S)-1-[3-(1-piperidyl)-1,2,4-thiadiazol-5-yl]ethyl]-5-(trifluoromethyl)pyrazole-3-carboxamide], with 1000 to 20000 nM.
Then `C[C@@H](NC(=O)c1cc(C(F)(F)F)nn1C)c1cc(-c2ccnc(C3CC3)c2)no1` (single isomer, unassigned) [Example 16], with at most 1000 nM; and `C[C@@H](NC(=O)c1ccccc1)c1cc(-c2ccnc(C3CC3)c2)no1` (single isomer, unassigned) [Example 15], with 1000 to 20000 nM; and `C[C@H](NC(=O)c1cccc(Cl)c1)c1cc(-c2ccnc(C3CC3)c2)no1` (single isomer, unassigned) [Example 18], with 1000 to 20000 nM.
Then `C[C@@H](NC(=O)c1cc(C(F)(F)F)nn1C)c1cc(-c2ccnc(C(F)(F)F)c2)no1` (single isomer, unassigned) [Example 3], with 1000 to 20000 nM; and `C[C@@H](NC(=O)c1cc(C(F)(F)F)nn1C)c1nc(-c2ccnc(C(F)(F)F)c2)ns1` (single isomer, unassigned) [Example 10], with at most 1000 nM; and `C[C@H](NC(=O)c1cc(C(F)F)nn1C)c1cc(-c2ccnc(C(F)(F)F)c2)no1` (single isomer, unassigned) [Example 31], with at most 1000 nM.
For `COCc1cc(-c2nsc([C@@H](C)NC(=O)c3cc(C(F)(F)F)nn3C)n2)ccn1` (single isomer, unassigned) [Example 43], the IC50 was in the range of 1000 to 20000 nM.
The same measure for `C[C@H](NC(=O)N1CCCCC1)c1cc(-c2ccnc(C(F)(F)F)c2)no1` (single isomer, unassigned) [Example 8]: at least 20000 nM; for `C[C@@H](NC(=O)c1cc(C(F)F)nn1C)c1cc(-c2ccnc(C(F)(F)F)c2)no1` (single isomer, unassigned) [Example 30]: 1000 to 20000 nM.
Then `C[C@@H](NC(=O)N1CCOc2ccccc21)c1cc(-c2ccnc(C(F)(F)F)c2)no1` (single isomer, unassigned) [Example 39], with at most 1000 nM; and `C[C@H](NC(=O)C1CCCCC1)c1cc(-c2ccnc(C(F)(F)F)c2)no1` (single isomer, unassigned) [Example 27], with 1000 to 20000 nM.
The same measure for `COc1cc(-c2nsc([C@H](C)NC(=O)c3cc(C(F)(F)F)nn3C)n2)ccn1` [Example 44, 2-methyl-N-[(1S)-1-[3-(2-methoxy-4-pyridyl)-1,2,4-thiadiazol-5-yl]ethyl]-5-(trifluoromethyl)pyrazole-3-carboxamide]: at most 1000 nM; for `C[C@H](NC(=O)c1cc(C(F)(F)F)nn1C)c1cc(-c2ccnc(C(F)(F)F)c2)no1` (single isomer, unassigned) [Example 2]: at most 1000 nM; for `C[C@@H](NC(=O)c1cccc(Cl)c1)c1nc(-c2ccnc(C3CC3)c2)ns1` (single isomer, unassigned) [Example 7]: at most 1000 nM.
In the case of `C[C@H](NC(=O)Cc1ccccc1)c1cc(-c2ccnc(C(F)(F)F)c2)no1` (single isomer, unassigned) [Example 29], the IC50 was in the range of 1000 to 20000 nM.
Then `C[C@H](NC(=O)c1cccc(C(F)(F)F)c1)c1cc(-c2ccnc(C(F)(F)F)c2)no1` (single isomer, unassigned) [Example 32], with at most 1000 nM; and `C[C@H](NC(=O)c1ccnn1C1CCC1)c1cc(-c2ccnc(C(F)(F)F)c2)no1` (single isomer, unassigned) [Example 37], with 1000 to 20000 nM.
Compound `C[C@@H](NC(=O)c1cccc(Cl)c1)c1cc(-c2ccnc(C(F)(F)F)c2)no1` (single isomer, unassigned) [Example 20] registered an IC50 of 1000 to 20000 nM.
The same measure for `C[C@@H](NC(=O)c1ccccc1)c1cc(-c2ccnc(C(F)(F)F)c2)no1` (single isomer, unassigned) [Example 22]: at least 20000 nM.
The same measure for `Cc1cc(-c2nsc([C@@H](C)NC(=O)c3cc(C(F)(F)F)nn3C)n2)ccn1` [Example 41, (R)-1-methyl-N-(1-(3-(2-methylpyridin-4-yl)-1,2,4-thiadiazol-5-yl)ethyl)-3-(trifluoromethyl)-1H-pyrazole-5-carboxamide]: 1000 to 20000 nM; for `C[C@H](NC(=O)N1CCCc2ccccc21)c1cc(-c2ccnc(C(F)(F)F)c2)no1` (single isomer, unassigned) [Example 34]: 1000 to 20000 nM.
Turning to `C[C@@H](NC(=O)c1cc(C(F)(F)F)nn1C)c1nc(-c2ccnc(C3CC3)c2)ns1` (single isomer, unassigned) [Example 13], the IC50 was at most 1000 nM.
On to `C[C@@H](NC(=O)N1CCCCC1)c1cc(-c2ccnc(C(F)(F)F)c2)no1` (single isomer, unassigned) [Example 9], for which the IC50 fell in the range of 1000 to 20000 nM.
The same measure for `C[C@H](NC(=O)c1cccc(Cl)c1)c1nc(-c2ccnc(C3CC3)c2)ns1` (single isomer, unassigned) [Example 6]: at most 1000 nM.
The compound `C[C@H](NC(=O)c1cc(C(F)(F)F)nn1C)c1nc(-c2ccnc(C(F)(F)F)c2)ns1` (single isomer, unassigned) [Example 11] registered an IC50 of at most 1000 nM.
The same measure for `C[C@H](NC(=O)N1CCOc2ccccc21)c1cc(-c2ccnc(C(F)(F)F)c2)no1` (single isomer, unassigned) [Example 38]: 1000 to 20000 nM; for `C[C@H](NC(=O)c1ccccc1)c1cc(-c2ccnc(C3CC3)c2)no1` (single isomer, unassigned) [Example 14]: at most 1000 nM.
Then `Cc1cc(-c2nsc([C@H](C)NC(=O)c3cc(C(F)(F)F)nn3C)n2)ccn1` [Example 40, 2-methyl-N-[(1S)-1-[3-(2-methyl-4-pyridyl)-1,2,4-thiadiazol-5-yl]ethyl]-5-(trifluoromethyl)pyrazole-3-carboxamide], with 1000 to 20000 nM; and `CC(C)c1cc(C(=O)N[C@H](C)c2cc(-c3ccnc(C(F)(F)F)c3)no2)n(C)n1` (single isomer, unassigned) [Example 24], with 1000 to 20000 nM.
With `C[C@@H](NC(=O)Cc1ccccc1)c1cc(-c2ccnc(C(F)(F)F)c2)no1` (single isomer, unassigned) [Example 28], the IC50 is at least 20000 nM.
Compound `C[C@@H](NC(=O)c1cc(C(F)(F)F)nn1C)c1nc(N2CCCCC2)ns1` [Example 47, 2-methyl-N-[(1R)-1-[3-(1-piperidyl)-1,2,4-thiadiazol-5-yl]ethyl]-5-(trifluoromethyl)pyrazole-3-carboxamide] showed an IC50 of 1000 to 20000 nM.
The same measure for `CC(C)c1cc(C(=O)N[C@@H](C)c2cc(-c3ccnc(C(F)(F)F)c3)no2)n(C)n1` (single isomer, unassigned) [Example 25, (N)-3-isopropyl-1-methyl-N-(1-(3-(2-(trifluoromethyl)pyridin-4-yl)isoxazol-5-yl)ethyl)-1H pyrazole-5-carboxamide]: at most 1000 nM; for `COCc1cc(-c2nsc([C@H](C)NC(=O)c3cc(C(F)(F)F)nn3C)n2)ccn1` (single isomer, unassigned) [Example 42]: 1000 to 20000 nM; for `C[C@@H](NC(=O)c1ccnn1C1CCC1)c1cc(-c2ccnc(C(F)(F)F)c2)no1` (single isomer, unassigned) [Example 36]: at most 1000 nM.
As for `C[C@@H](NC(=O)c1cccc(C(F)(F)F)c1)c1cc(-c2ccnc(C(F)(F)F)c2)no1` (single isomer, unassigned) [Example 33], the IC50 lay in the range of 1000 to 20000 nM.
Then `COc1cc(-c2nsc([C@@H](C)NC(=O)c3cc(C(F)(F)F)nn3C)n2)ccn1` [Example 45, 2-methyl-N-[(1R)-1-[3-(2-methoxy-4-pyridyl)-1,2,4-thiadiazol-5-yl]ethyl]-5-(trifluoromethyl)pyrazole-3-carboxamide], with at most 1000 nM.
The same measure for `C[C@@H](NC(=O)c1ccccc1)c1nc(-c2ccnc(C3CC3)c2)ns1` [Example 5, (R)-N-(1-(3-(2-cyclopropylpyridin-4-yl)-1,2,4-thiadiazol-5-yl)ethyl)benzamide]: at most 1000 nM.
